# According to patent publication US9040545B2, “Heterocyclyl pyrazolopyrimidine analogues as selective JAK inhibitors” (Cellzome Limited, priority 2010, dated 2015):
# Target: T1, JAK3 (Homo sapiens, UniProt P52333)
# T1 construct: endogenous in cells; host or cells: mixed Molt4/Ramos lysate (1:2)
# T1 sequence (P52333 1-1124): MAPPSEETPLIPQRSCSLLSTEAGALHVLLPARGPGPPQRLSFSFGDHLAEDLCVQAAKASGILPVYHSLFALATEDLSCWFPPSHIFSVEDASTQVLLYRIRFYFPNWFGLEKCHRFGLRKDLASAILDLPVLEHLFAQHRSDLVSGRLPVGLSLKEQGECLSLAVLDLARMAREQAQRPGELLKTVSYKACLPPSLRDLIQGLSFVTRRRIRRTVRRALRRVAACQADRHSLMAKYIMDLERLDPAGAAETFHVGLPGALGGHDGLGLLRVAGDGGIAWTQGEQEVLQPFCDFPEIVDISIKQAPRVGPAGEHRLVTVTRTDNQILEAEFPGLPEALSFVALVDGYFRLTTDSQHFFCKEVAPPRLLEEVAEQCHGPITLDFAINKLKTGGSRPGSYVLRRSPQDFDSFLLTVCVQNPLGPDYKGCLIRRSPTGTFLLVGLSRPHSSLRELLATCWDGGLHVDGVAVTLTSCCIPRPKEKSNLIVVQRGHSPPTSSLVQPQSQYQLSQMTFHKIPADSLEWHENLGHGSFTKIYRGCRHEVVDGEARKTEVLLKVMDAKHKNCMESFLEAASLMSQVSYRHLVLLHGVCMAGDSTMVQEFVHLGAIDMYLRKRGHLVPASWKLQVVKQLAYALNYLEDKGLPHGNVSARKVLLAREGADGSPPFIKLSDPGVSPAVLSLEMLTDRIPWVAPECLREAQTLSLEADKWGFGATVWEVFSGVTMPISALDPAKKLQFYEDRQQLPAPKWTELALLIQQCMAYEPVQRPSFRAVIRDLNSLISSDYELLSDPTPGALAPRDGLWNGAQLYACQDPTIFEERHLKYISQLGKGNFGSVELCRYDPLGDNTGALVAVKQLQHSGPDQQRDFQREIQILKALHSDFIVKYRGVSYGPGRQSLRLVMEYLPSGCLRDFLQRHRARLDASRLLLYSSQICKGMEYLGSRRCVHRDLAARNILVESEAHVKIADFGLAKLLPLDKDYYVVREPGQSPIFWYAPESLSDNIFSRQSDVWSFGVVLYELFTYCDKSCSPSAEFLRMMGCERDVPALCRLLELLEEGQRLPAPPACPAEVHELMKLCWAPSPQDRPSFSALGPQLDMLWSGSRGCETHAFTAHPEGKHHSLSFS
# Assay: Kinobeads assay, JAK3
# Format: binding
# Details: mixed Molt4/Ramos lysate, read-out: Inhibition values (IC50) JAK3
# Outline: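 IC50 values come from dose-response curves of JAK2/JAK3 captured on immobilized aminopyrido-pyrimidine beads, quantified by antibody dot blot with infrared read-out. Compounds (1:3 series, 9 steps, from 5 mM DMSO stock) competed for 3 h in the cold with mixed Molt4/Ramos lysate (1:2, 10 mg/mL protein).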
row,Compound,IC50
1,"CN(C)CCCn1cc(Nc2ncc3cnn(Cc4c(F)c(F)cc(N5CCOCC5=O)c4F)c3n2)cn1 [Example 70, 4-(3-((6-((1-(3-(Dimethylamino)propyl)-1H-pyrazol-4-yl)amino)-1H-pyrazolo[3,4-d]pyrimidin-1-yl)methyl)-2,4,5-trifluorophenyl)morpholin-3-one]",< 0.1 µM
2,"Cn1cc(Nc2ncc3cnn(Cc4cc(N5CCNCC5=O)cc(F)c4F)c3n2)cn1 [Example 71, 1-(3,4-Difluoro-5-((6-((1-methyl-1H-pyrazol-4-yl)amino)-1H-pyrazolo[3,4-d]pyrimidin-1-yl)methyl)phenyl)piperazin-2-one]",< 0.1 µM
3,"O=C1CNCCN1c1cc(F)c(F)c(Cn2ncc3cnc(Nc4cnn(CCO)c4)nc32)c1 [Example 72, 1-(3,4-Difluoro-5-((6-((1-(2-hydroxyethyl)-1H-pyrazol-4-yl)amino)-1H-pyrazolo[3,4-d]pyrimidin-1-yl)methyl)phenyl)piperazin-2-one]",< 0.1 µM
4,"Cn1cc(Nc2ncc3cnn(Cc4cc(F)cc(N5CCOCC5=O)c4F)c3n2)cn1 [Example 73, 4-(2,5-Difluoro-3-((6-((1-methyl-1H-pyrazol-4-yl)amino)-1H-pyrazolo[3,4-d]pyrimidin-1-yl)methyl)phenyl)morpholin-3-one]",< 0.1 µM
5,"O=C1COCCN1c1cc(F)cc(Cn2ncc3cnc(Nc4cnn(CCO)c4)nc32)c1F [Example 74, 4-(2,5-Difluoro-3-((6-((1-(2-hydroxyethyl)-1H-pyrazol-4-yl)amino)-1H-pyrazolo[3,4-d]pyrimidin-1-yl)methyl)phenyl)morpholin-3-one]",< 0.1 µM
6,"CN(C)CCCn1cc(Nc2ncc3cnn(Cc4c(F)ccc(N5CCOCC5=O)c4F)c3n2)cn1 [Example 75, 4-(3-((6-((1-(3-(Dimethylamino)propyl)-1H-pyrazol-4-yl)amino)-1H-pyrazolo[3,4-d]pyrimidin-1-yl)methyl)-2,4-difluorophenyl)morpholin-3-one]",< 0.1 µM
7,"Cn1cc(Nc2ncc3cnn(Cc4c(F)ccc(N5CCNCC5=O)c4F)c3n2)cn1 [Example 76, 1-(2,4-Difluoro-3-((6-((1-methyl-1H-pyrazol-4-yl)amino)-1H-pyrazolo[3,4-d]pyrimidin-1-yl)methyl)phenyl)piperazin-2-one]",< 0.1 µM
8,"COC1CCN(c2cccc(Cn3ncc4cnc(Nc5cnn(C)c5)nc43)c2)CC1 [Example 77, 1-(3-(4-Methoxypiperidin-1-yl)benzyl)-N-(1-methyl-1H-pyrazol-4-yl)-1H-pyrazolo[3,4-d]pyrimidin-6-amine]",< 0.1 µM
9,"OCCn1cc(Nc2ncc3cnn(Cc4cc(N5CCNCC5)cc(F)c4F)c3n2)cn1 [Example 78, 2-(4-((1-(2,3-Difluoro-5-(piperazin-1-yl)benzyl)-1H-pyrazolo[3,4-d]pyrimidin-6-yl)amino)-1H-pyrazol-1-yl)ethanol]",< 0.1 µM
10,"Cn1cc(Nc2ncc3cnn(Cc4cc(F)cc(C(=O)N5CCOCC5)c4)c3n2)cn1 [Example 79, (3-Fluoro-5-((6-((1-methyl-1H-pyrazol-4-yl)amino)-1H-pyrazolo[3,4-d]pyrimidin-1-yl)methyl)phenyl)(morpholino)methanone]",< 0.1 µM
11,"Cn1cc(Nc2ncc3cnn(Cc4cc(F)cc(C(=O)N5CCNCC5)c4)c3n2)cn1 [Example 80, (3-Fluoro-5-((6-((1-methyl-1H-pyrazol-4-yl)amino)-1H-pyrazolo[3,4-d]pyrimidin-1-yl)methyl)phenyl)(piperazin-1-yl)methanone]",< 0.1 µM
12,"Fc1cc(N2CCOCC2)c(F)c(Cn2ncc3cnc(Nc4cn[nH]c4)nc32)c1F [Example 81, N-(1H-Pyrazol-4-yl)-1-(2,3,6-trifluoro-5-morpholinobenzyl)-1H-pyrazolo[3,4-d]pyrimidin-6-amine]",< 0.1 µM
13,"OCCn1cc(Nc2ncc3cnn(Cc4c(F)ccc(N5CCOCC5)c4F)c3n2)cn1 [Example 82, 2-(4-((1-(2,6-Difluoro-3-morpholinobenzyl)-1H-pyrazolo[3,4-d]pyrimidin-6-yl)amino)-1H-pyrazol-1-yl)ethanol]",< 0.1 µM
